Test [1] deals with T1, NLRP3 (Homo sapiens, UniProt Q96P20). Put plainly: THP-1 cells pyroptosis assay. The format is cell-based. Details: Seed THP-1 cells (25,000 cells/well) containing 1.0 μg/ml LPS; host or cells: THP-1 cells, LPS-primed, nigericin-stimulated. The settings on record: THP-1 cells, 1.0 μg/ml LPS, nigericin 5 μM, pyroptosis read with resazurin; read-out: THP IC50. As to the method:
The cells were routinely passaged and grown to confluency (˜10^6 cells/ml). On the day of the experiment, THP-1 cells were harvested and resuspended into RPMI medium (without FBS). The cells were then counted and viability (>90%) checked by Trypan blue (Sigma # T8154). […] To this diluted cell solution was added LPS (Sigma # L4524) to give a 1 μg/ml Final Assay Concentration (FAC). 40 μl of the final preparation was aliquoted into each well of a 96-well plate. The plate thus prepared was used for compound screening. THP-1 Cells Pyroptosis Assay The following method step-by-step assay was followed for compound screening. • 1. […] Add 5 μl nigericin (Sigma # N7143) (FAC 5 μM) to all wells • 5. […] At the end of the incubation period, spin plates at 300×g for 3 mins and remove supernatant • 7. Then add 50 μl of resazurin (Sigma # R7017) (FAC 100 μM resazurin in RPMI medium without FBS) and incubate plates for a further 1-2 hrs at 37° C. and 5% CO2 • 8. […] IC50 data is fitted to a non-linear regression equation (log inhibitor vs response-variable slope 4-parameters) [table]
(Resazurin is reduced to fluorescent resorufin, in cell work by metabolically active cells.)

In test [2] the target is T1, NLRP3. The experiment in a line: Human whole blood IL1β release assay. The format is cell-based. More on the design: Human whole blood in Li-heparin tubes was obtained from healthy donors; from tissue; host or cells: human whole blood from healthy donors, LPS-primed, nigericin-stimulated. The settings on record: human whole blood, 1 μg/ml LPS, nigericin 10 μM, IL-1β release; read-out: HWB IC50. Here is the method:
Human Whole Blood IL1β Release Assay
For systemic delivery, the ability to inhibit NLRP3 when the compounds are present within the bloodstream is of great importance. For this reason, the NLRP3 inhibitory activity of a number of compounds in human whole blood was investigated in accordance with the following protocol.
Human whole blood in Li-heparin tubes was obtained from healthy donors from a volunteer donor panel. • 1. […] Incubate for 3 hrs at 37° C., 5% CO2 • 4. Add 10 μl Nigericin (Sigma # N7143) (10 μM FAC) to all wells • 5. Incubate for 1 hr at 37° C., 5% CO2 • 6. At the end of the incubation period, spin plates at 300×g for 5 mins to pellet cells and remove 20 μl of supernatant and add to 96-well v-bottom plates for IL-1β analysis (note: these plates containing the supernatants can be stored at −80° C. to be analysed at a later date) • 7. IL-1β was measured according to the manufacturer protocol (Perkin Elmer-AlphaLisa IL-1 Kit AL220E-5000) • 8. IC50 data is fitted to a non-linear regression equation (log inhibitor vs response-variable slope 4-parameters)

The structures appear in SMILES notation. pIC50: −log10 of the molar value. Structures can show the parent of a compound that is named as a salt.

The pIC50 is −log10 of the IC50, conventionally taken in molar units.

T1 sequence (Q96P20 whole entry): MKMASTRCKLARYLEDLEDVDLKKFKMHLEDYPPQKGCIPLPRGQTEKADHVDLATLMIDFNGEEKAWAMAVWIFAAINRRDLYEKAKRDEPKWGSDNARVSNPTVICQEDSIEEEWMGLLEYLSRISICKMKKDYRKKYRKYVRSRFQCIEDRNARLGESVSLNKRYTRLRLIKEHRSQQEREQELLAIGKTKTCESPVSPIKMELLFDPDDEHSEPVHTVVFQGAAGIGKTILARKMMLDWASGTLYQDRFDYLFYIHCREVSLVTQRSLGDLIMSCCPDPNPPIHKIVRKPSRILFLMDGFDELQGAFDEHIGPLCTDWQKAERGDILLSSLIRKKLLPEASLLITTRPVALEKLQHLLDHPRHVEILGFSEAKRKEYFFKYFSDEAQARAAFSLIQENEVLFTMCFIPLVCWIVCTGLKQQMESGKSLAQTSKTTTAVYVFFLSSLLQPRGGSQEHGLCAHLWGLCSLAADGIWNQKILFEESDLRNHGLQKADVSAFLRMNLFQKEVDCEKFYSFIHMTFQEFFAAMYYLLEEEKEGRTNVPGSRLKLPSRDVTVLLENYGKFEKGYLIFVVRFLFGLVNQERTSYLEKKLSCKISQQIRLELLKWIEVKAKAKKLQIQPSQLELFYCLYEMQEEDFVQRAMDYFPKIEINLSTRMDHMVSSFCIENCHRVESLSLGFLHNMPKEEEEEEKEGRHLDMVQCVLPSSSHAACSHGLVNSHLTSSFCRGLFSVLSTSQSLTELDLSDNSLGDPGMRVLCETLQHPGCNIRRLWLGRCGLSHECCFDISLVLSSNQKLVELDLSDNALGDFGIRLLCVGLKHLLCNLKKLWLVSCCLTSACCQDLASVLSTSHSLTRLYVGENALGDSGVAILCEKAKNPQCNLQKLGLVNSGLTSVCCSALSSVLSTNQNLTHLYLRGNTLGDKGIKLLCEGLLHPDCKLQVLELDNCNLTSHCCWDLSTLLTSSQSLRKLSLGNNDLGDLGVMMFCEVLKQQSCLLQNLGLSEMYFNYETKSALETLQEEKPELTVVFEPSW

Regarding `CN(C)c1cnnc(S(=O)(=O)NC(=O)Nc2c(-c3ccncc3)cc(F)c3c2CCC3)c1` [Example 53, 5-(Dimethylamino)-N-((7-fluoro-5-(pyridin-4-yl)-2,3-dihydro-1H-inden-4-yl)carbamoyl) pyridazine-3-sulfonamide], the pIC50 was over 6.10 in test [1] and over 5.60 in test [2].
For `COc1cc(-c2ccc3c(c2NC(=O)NS(=O)(=O)c2ccc(CN(C)C)nc2)CCC3)ccn1` [Example 58, 6-((Dimethylamino)methyl)-N-((5-(2-methoxypyridin-4-yl)-2,3-dihydro-1H-inden-4-yl)carbamoyl)pyridine-3-sulfonamide], in that order: over 6.10 and over 5.60.
Taken in the same sequence, the figures for `COc1cc(-c2ccc3c(c2NC(=O)NS(=O)(=O)c2ccnc(CN(C)C)c2)CCC3)ccn1` [Example 59, 2-((Dimethylamino)methyl)-N-((5-(2-methoxypyridin-4-yl)-2,3-dihydro-1H-inden-4-yl)carbamoyl)pyridine-4-sulfonamide, sodium salt] were over 6.10 and over 5.60.
For `COc1cc(-c2ccc3c(c2NC(=O)NS(=O)(=O)c2ccnc(C(C)C)c2)CCC3)ccn1` [Example 60, 2-Isopropyl-N-((5-(2-methoxypyridin-4-yl)-2,3-dihydro-1H-inden-4-yl)carbamoyl)pyridine-4-sulfonamide, sodium salt], in that order: over 6.10 and over 5.60.

For the origin of these results see patent US11370776B2, “Sulfonylureas and sulfonylthioureas as NLRP3 inhibitors” (Inflazome Limited, priority 2017, dated 2022).
